“Also recorded” adds a separate entry of the source. Read-outs that look alike come from different tables or passages of the source. Peptide text beside a SMILES is read from it.
Columns and labels:
[1] = system: brain, liver, heart, kidney, eye, and spleen; assay: Histologic analysis of organs for treatment-related pathologies
Text: (§1) After the hearts all other relevant inner organs (e.g., lung, liver, spleen, kidneys, brain, and eyes) were removed, rinsed with ice-cold PBS, weighed, sectioned, and fixed for further histologic analysis.
Supplementary file pone.0117589.s003.tif: S3 Fig Histologic analysis of various organs (therapy-study, mono-treatment). Representative H&E-stained 2μm cross-sections from various organs analyzed for treatment-related pathologies. Panels (from top to bottom) show organs analyzed from immunised anti-β1EC2-positive untreated, β1EC2-CP-treated, or bisoprolol-treated rats. […] (TIF) Click here for additional data file.

[2] = system: anti-β1EC2-induced heart failure (β1EC2/GST-FP-immunised rats); assay: Echocardiography and catheterisation, cardiomyopathic phenotype, therapy-study; type: in vivo, Lewis/CrlBR rats; conditions: echocardiography and catheterisation (Fig. 2G, H; S2 Fig.)
Description: (§2) In brief, n = 76 two months old Lewis/CrlBR rats were either s.c. immunised with 50 μg β1EC2/GST-FP, or n = 38 rats were control-injected with 0.9% NaCl (t = 0). To maintain high anti-β1EC2-titers, all immunised rats were boosted with β1EC2/GST-FP (or 0.9% NaCl) every month over 20 months as previously described. Application of the different linear or cyclic β1-AR peptides (corresponding to the primary AA-sequence of either the first (β1EC1) or the 2nd extra-cellular β1-AR loop (β1EC2)) or the β1-receptor blocker bisoprolol was initiated either 6 weeks after the 1st immunisation (i.e. 15 days after the 1st boost, prevention-study), or 8.5 months after the 1st immunisation (therapy-study).
In brief, the rats were lightly anaestetised (30 mg/kg ketamine-HCl and 5 mg/kg xylazine i.p.), shaved (chest), and placed supine on a special table. M-mode tracings were recorded at baseline (before immunisation), and subsequently every four months in the parasternal long and short axis views according to the guidelines of the American Society for Echocardiography. Pulsed-wave Doppler spectra were recorded from the apical five-chamber view and the velocity-time integral (VTI) of the transaortic flow served to calculate cardiac output (CO [ml/min] = Aortic VTI x (π [LV-outflow tract diameter/2]^2) x bpm).

[3] = system: anti-β1EC2-induced heart failure (β1EC2/GST-FP-immunised rats); assay: Left heart catheterisation (haemodynamics), therapy-study; type: in vivo, Lewis/CrlBR rats; conditions: LV catheterisation month 20, mean ±SEM
Description: as §2

anti-β1EC2-antibodies = assay: Free anti-β1EC2-titers by ELISA, therapy-study; type: in vivo, Lewis/CrlBR rats; conditions: for effect on anti-β1EC2-titers, in words: peptides 1.0 mg/kg/month i.v., bisoprolol 15 mg/kg/day orally (S1 Fig., Fig. 2F); for decline in anti-β1EC2-titers: 1.0 mg/kg i.v. every 4 weeks, irrespective of bisoprolol co-treatment (Fig. 2F)
Description: as §2
(TIF) Click here for additional data file.

[4] = system: anti-β1EC2-induced heart failure (β1EC2/GST-FP-immunised rats); assay: Relative organ wet weights and body weight, therapy-study; conditions: month 20, mean ±SEM
Description: as §2, §1

[5] = system: anti-β1EC2-induced heart failure (β1EC2/GST-FP-immunised rats); conditions: therapy-study, end of study, mean ±SEM
Description: as §2
From paraffin-embedded heart preparations cavity- and wall-dimensions were determined by computer-aided analysis of H&E-stained mid-ventricular 2μm-sections as previously described. H&E-stained paraffin-sections also served to quantify damaged and fibrotic cardiac areas (scars). For detection of mast cells, deparaffinised cardiac sections were stained with acidified (pH<2.5) toluidine blue 0.1% (Sigma). The number of toluidine-positive cells was normalized to square millimeter of cardiac tissue. TUNEL-positive cells were quantified in 2μm mid-ventricular paraffin-sections using a TMR Red in Situ Death Detection Kit (Roche, Basel, Switzerland). Only the total number of TUNEL-postive cells/section was determined without further differentiation of the specific apoptotic cell type (e.g., fibroblasts, endothelial cells, cardiomyocytes).

[6] = immunised anti-β1EC2-positive rats, from 8.5 months after 1st immunisation peptides 1.0 mg/kg i.v. every 4 weeks, bisoprolol 15 mg/kg/day orally, over 12 months
[7] = non-immunised 0.9% NaCl-injected rats, EC2-CP 1.0 mg/kg i.v. every 4 weeks or bisoprolol 15 mg/kg/day orally over 12 months

SMILES | cardiomyopathic phenotype, in words [2] | -dP/dt (relaxation) [3, 6] [mmHg/s] | HF (heart frequence) [3, 6] [bpm] | LVEDP (LV end-diastolic pressure) [3, 6] [mmHg] | LVSP (maximal systolic LV-pressure) [3, 6] [mmHg] | -dP/dt (relaxation) [3, 7] [mmHg/s] | HF (heart frequence) [3, 7] [bpm] | LVEDP (LV end-diastolic pressure) [3, 7] [mmHg] | LVSP (maximal systolic LV-pressure) [3, 7] [mmHg] | effect on anti-β1EC2-titers, in words (anti-β1EC2-antibodies) | Heart, relative (wet) weight [4, 6] [mg/g] | Liver, relative (wet) weight [4, 6] [mg/g] | Lung, relative (wet) weight [4, 6] [mg/g] | IVS (thickness of the inter-ventricular septum) [5, 6] [mm] | LVA (total LV-area) [5, 6] [mm2] | LVCA (LV-cavity area) [5, 6] [mm2] | LVWA (LV wall area) [5, 6] [mm2] | PW (posterior wall thickness) [5, 6] [mm] | IVS (thickness of the inter-ventricular septum) [5, 7] [mm] | LVA (total LV-area) [5, 7] [mm2] | further results
CC(C)NCC(O)COc1ccc(COCCOC(C)C)cc1 (stereo not shown) [bisoprolol, reference compound] | only stopped further disease-progression | 4238 ± 117 | 173 ± 3 | 10.9 ± 1.3 | 108 ± 2 | 4646 ± 295 | 168 ± 6 | 9.7 ± 0.9 | 104 ± 4 | no effect | 2.93 ± 0.11 | 21.61 ± 1.47 | 2.88 ± 0.10 | 1.7 ±0.1 | 61.9 ±5.2 | 26.8 ±1.0 | 35.0 ±4.5 | 1.5 ±0.1 | 1.8 ±0.1 | 58.4 ±0.7 | treatment-related organ pathologies / organ-toxicity, in words ([1]; rat, in vivo): Neither treatment strategy caused detectable organ-specific toxicity; +dP/dt (contractilility) [3, 6]: 5697 ± 231 mmHg/s; +dP/dt (contractilility) [3, 7]: 6018 ±308 mmHg/s; LVCA (LV-cavity area) [5, 7]: 22.6 ±0.2 mm2; LVCA / LVA % [5, 7]: 38.7 ±0.5%; LVWA (LV wall area) [5, 7]: 35.8 ±0.5 mm2; PW (posterior wall thickness) [5, 7]: 1.8 ±0.1 mm
CC(C)[C@@H]1NC(=O)[C@H](Cc2ccccc2)NC(=O)[C@H](CC(=O)O)NC(=O)[C@H](CS)NC(=O)[C@H](CS)NC(=O)[C@H](CCCCN)NC(=O)[C@@H]2CCCN2C(=O)[C@H](CC(=O)O)NC(=O)[C@H](CC(N)=O)NC(=O)[C@H](Cc2ccc(O)cc2)NC(=O)[C@H](CS)NC(=O)[C@H](CCCNC(=N)N)NC(=O)[C@H](CCCNC(=N)N)NC(=O)[C@H](C)NC(=O)[C@H](CCC(=O)O)NC(=O)[C@H](CC(=O)O)NC(=O)[C@H](CO)NC(=O)[C@H](CCC(=O)O)NC(=O)[C@H](C)NC(=O)[C@H](CCCNC(=N)N)NC(=O)[C@H](C)NC(=O)[C@H](CCC(N)=O)NC(=O)CNC(=O)[C@H](CCCNC(=N)N)NC(=O)[C@H](CC(N)=O)NC(=O)[C@H]([C@@H](C)O)NC1=O [β1EC2-CP] (cyclo(AESDEARRCYNDPKCCDFVTNRGQAR)) | almost fully reversed | 5228 ±166 | 217 ±3 | 10.0 ± 1.0 | 126 ±4 | 5502 ±248 | 221 ±7 | 9.2 ± 1.1 | 121 ±8 |  | 2.20 ± 0.09 | 19.83 ± 0.50 | 2.26 ± 0.16 | 1.7 ±0.1 | 65.2 ±2.5 | 25.6 ±1.0 | 39.6 ±1.7 | 1.8 ±0.1 | 1.7 ±0.1 | 57.4 ±0.7 | treatment-related organ pathologies / organ-toxicity, in words ([1]; therapy-study, after 12 months of treatment, H&E-stained sections (S3 Fig.)): no β1EC2-CP-related pathologies were noted; also recorded: Neither treatment strategy caused detectable organ-specific toxicity; decline in anti-β1EC2-titers (anti-β1EC2-antibodies; after 4–5 injections): > 90%; decline in anti-β1EC2-titers (anti-β1EC2-antibodies; after two injections): > 70%; steady state antibody-levels in % of the titers at initiation of therapy (anti-β1EC2-antibodies; despite monthly antigen-boosts): less than 15%; Kidney L, relative (wet) weight [4, 6]: 2.29 ± 0.06 mg/g; Kidney R, relative (wet) weight [4, 6]: 2.25 ± 0.05 mg/g; Spleen, relative (wet) weight [4, 6]: 1.23 ± 0.04 mg/g; Weight (body weight) [4, 6]: 673 ± 12 g; Heart, relative (wet) weight [4, 7]: 2.15 ± 0.08 mg/g; Kidney L, relative (wet) weight [4, 7]: 2.19 ± 0.08 mg/g; Kidney R, relative (wet) weight [4, 7]: 2.22 ± 0.08 mg/g; Liver, relative (wet) weight [4, 7]: 18.9 ± 0.55 mg/g; Lung, relative (wet) weight [4, 7]: 2.08 ± 0.07 mg/g; Spleen, relative (wet) weight [4, 7]: 1.18 ± 0.03 mg/g; Weight (body weight) [4, 7]: 695 ± 27 g; LVCA (LV-cavity area) [5, 7]: 21.3 ±0.1 mm2; LVWA (LV wall area) [5, 7]: 36.1 ±0.7 mm2; PW (posterior wall thickness) [5, 7]: 1.9 ±0.1 mm
CC(C)[C@H](NC(=O)[C@H](Cc1ccccc1)NC(=O)[C@H](CC(=O)O)NC(=O)[C@H](CS)NC(=O)[C@H](CS)NC(=O)[C@H](CCCCN)NC(=O)[C@@H]1CCCN1C(=O)[C@H](CC(=O)O)NC(=O)[C@H](CC(N)=O)NC(=O)[C@H](Cc1ccc(O)cc1)NC(=O)[C@H](CS)NC(=O)[C@H](CCCNC(=N)N)NC(=O)[C@H](CCCNC(=N)N)NC(=O)[C@H](C)NC(=O)[C@H](CCC(=O)O)NC(=O)[C@H](CC(=O)O)NC(=O)[C@H](CO)NC(=O)[C@H](CCC(=O)O)NC(=O)[C@H](C)NC(=O)[C@H](CCCNC(=N)N)NC(=O)[C@H](C)N)C(=O)N[C@H](C(=O)N[C@@H](CC(N)=O)C(=O)N[C@@H](CCCNC(=N)N)C(=O)NCC(N)=O)[C@@H](C)O [β1EC2-Lin] (H-ARAESDEARRCYNDPKCCDFVTNRG-NH2; N-terminus and C-terminus assumed) | failed to elicit any cardiopotective effects | 4857 ±157 | 210 ±6 | 14.5 ±1.2 | 116 ±4 |  |  |  |  | only negligible effects | 2.88 ± 0.24 | 22.64 ± 0.59 | 2.77 ± 0.12 | 1.5 ±0.1 | 71.2 ±3.5 | 32.7 ±1.3 | 38.5 ±2.4 | 1.6 ±0.1 |  |  | Kidney L, relative (wet) weight [4, 6]: 2.32 ± 0.14 mg/g; Kidney R, relative (wet) weight [4, 6]: 2.36 ± 0.20 mg/g; Spleen, relative (wet) weight [4, 6]: 1.49 ± 0.09 mg/g; Weight (body weight) [4, 6]: 598 ± 38 g

Source: PMC4336331, “Novel Receptor-Derived Cyclopeptides to Treat Heart Failure Caused by Anti-β1-Adrenoceptor Antibodies in a Human-Analogous Rat Model” (PLoS ONE, 2015)
